The record followed here is PMC7252619 (PLoS ONE, 2020).

Experiment in all cases: Kinase activity test (ReactionBiology), % enzyme activity relative to DMSO
Common to all, as to format: biochemical

One experiment deals with T1, DAPK1 (Homo sapiens, UniProt P53355).
T1 construct: purchased ReactionBiology
The settings on record: DAPK1; for % Enzyme Activity (relative to DMSO controls), Data 1: replicate Data 1; for % Enzyme Activity (relative to DMSO controls), Data 2: replicate Data 2.

The next experiment has as its target T2, CDC7 (Homo sapiens, UniProt O00311).
T2 construct: purchased ReactionBiology
The settings on record: CDC7; for % Enzyme Activity (relative to DMSO controls), Data 1: replicate Data 1; for % Enzyme Activity (relative to DMSO controls), Data 2: replicate Data 2.

The target in the next experiment is T3, MAP2K2 (Homo sapiens, UniProt P36507).
T3 construct: purchased ReactionBiology
T3 sequence (P36507 whole entry): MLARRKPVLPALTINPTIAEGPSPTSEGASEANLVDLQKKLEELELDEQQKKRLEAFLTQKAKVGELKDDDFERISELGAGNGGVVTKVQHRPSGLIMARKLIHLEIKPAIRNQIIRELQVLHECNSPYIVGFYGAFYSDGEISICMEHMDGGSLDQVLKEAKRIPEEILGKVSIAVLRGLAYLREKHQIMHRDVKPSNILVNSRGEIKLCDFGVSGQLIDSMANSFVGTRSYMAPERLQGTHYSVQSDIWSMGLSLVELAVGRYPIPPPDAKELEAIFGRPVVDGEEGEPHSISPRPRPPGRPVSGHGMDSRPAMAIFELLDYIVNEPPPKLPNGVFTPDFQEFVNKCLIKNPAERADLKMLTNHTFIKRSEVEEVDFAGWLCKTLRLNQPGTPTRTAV
The settings on record: MEK2.

The target of a further experiment is VEGFR2 (Homo sapiens, UniProt P35968). Further details: purchased ReactionBiology. The settings on record: VEGFR2.
VEGFR2, sequence (P35968 20-1356): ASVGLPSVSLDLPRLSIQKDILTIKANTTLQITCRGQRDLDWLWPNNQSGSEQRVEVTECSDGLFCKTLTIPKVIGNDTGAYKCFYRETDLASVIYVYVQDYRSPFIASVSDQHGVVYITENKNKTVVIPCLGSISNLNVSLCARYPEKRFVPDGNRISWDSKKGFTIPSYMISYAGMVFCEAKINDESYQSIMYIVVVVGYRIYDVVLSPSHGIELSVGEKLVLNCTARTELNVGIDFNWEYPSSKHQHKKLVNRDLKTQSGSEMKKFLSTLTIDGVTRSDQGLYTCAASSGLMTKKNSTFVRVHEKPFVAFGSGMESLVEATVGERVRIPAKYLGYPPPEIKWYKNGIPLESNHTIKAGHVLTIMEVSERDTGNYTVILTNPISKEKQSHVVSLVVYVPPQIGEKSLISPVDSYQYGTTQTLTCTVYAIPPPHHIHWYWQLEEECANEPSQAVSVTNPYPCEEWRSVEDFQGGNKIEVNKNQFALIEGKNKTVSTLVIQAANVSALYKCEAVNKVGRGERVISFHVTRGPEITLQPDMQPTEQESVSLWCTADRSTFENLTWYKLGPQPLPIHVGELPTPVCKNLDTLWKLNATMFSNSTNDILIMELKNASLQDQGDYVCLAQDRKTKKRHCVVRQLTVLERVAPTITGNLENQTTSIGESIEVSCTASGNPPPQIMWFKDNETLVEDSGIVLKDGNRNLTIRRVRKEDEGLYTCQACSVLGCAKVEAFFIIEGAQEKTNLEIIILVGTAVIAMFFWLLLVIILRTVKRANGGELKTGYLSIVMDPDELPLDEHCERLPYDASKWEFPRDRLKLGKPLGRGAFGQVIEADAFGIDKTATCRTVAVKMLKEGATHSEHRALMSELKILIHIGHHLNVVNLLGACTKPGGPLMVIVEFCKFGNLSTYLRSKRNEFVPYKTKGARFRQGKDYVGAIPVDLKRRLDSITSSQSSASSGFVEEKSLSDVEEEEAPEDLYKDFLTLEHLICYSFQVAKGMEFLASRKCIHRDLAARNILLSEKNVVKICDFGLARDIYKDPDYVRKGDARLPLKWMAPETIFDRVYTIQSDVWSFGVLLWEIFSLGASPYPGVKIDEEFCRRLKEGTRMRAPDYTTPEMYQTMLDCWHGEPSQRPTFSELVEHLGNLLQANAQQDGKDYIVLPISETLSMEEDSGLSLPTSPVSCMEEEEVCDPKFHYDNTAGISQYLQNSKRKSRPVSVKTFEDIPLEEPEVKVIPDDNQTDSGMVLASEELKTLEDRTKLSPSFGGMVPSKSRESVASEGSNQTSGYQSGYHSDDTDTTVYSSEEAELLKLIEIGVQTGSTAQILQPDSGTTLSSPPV
The target of the next experiment is T4, MST-4 (Homo sapiens, UniProt Q9P289).
T4 construct: purchased ReactionBiology
T4 sequence (Q9P289 whole entry): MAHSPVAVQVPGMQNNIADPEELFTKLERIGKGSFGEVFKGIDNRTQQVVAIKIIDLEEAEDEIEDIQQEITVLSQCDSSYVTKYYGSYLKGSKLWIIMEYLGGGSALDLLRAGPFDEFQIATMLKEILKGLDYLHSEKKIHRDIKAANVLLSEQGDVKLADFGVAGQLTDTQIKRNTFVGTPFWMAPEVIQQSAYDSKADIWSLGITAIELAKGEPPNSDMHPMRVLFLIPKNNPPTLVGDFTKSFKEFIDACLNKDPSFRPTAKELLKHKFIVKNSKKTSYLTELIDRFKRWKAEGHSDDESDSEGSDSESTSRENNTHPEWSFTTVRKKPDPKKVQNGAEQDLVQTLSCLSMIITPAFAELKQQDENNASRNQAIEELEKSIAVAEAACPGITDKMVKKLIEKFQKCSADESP
Particulars: MST4; for % Enzyme Activity (relative to DMSO controls), Data 1: replicate Data 1; for % Enzyme Activity (relative to DMSO controls), Data 2: replicate Data 2.

A further experiment concerns the target T5, NEK2 (Homo sapiens, UniProt P51955).
T5 construct: purchased ReactionBiology
T5 sequence (P51955 1-445): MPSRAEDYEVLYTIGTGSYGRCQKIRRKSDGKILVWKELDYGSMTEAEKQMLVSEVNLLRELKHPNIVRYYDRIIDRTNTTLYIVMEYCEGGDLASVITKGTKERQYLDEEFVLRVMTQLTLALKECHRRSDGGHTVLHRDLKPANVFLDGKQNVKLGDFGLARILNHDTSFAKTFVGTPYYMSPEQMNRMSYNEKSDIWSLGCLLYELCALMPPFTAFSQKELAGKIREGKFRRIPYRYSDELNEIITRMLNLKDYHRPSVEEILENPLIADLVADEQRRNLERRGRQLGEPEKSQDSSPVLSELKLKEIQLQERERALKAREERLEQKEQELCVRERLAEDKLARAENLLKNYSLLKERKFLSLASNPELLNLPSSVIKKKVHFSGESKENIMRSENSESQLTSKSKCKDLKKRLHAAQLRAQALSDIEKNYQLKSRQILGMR
The settings on record: NEK2.

The mark [1] stands for this setting: 1 uM, Average, read-out: % Enzyme Activity (relative to DMSO controls), Average.
Setting [2] is: 1 uM, replicate Data 1, read-out: % Enzyme Activity (relative to DMSO controls), Data 1.
Setting [3] is: 1 uM, replicate Data 2, read-out: % Enzyme Activity (relative to DMSO controls), Data 2.
Setting [4] is: 10 uM, Average, read-out: % Enzyme Activity (relative to DMSO controls), Average.
[5] abbreviates: 10 uM, replicate Data 1, read-out: % Enzyme Activity (relative to DMSO controls), Data 1.
Where [6] appears, read: 10 uM, replicate Data 2, read-out: % Enzyme Activity (relative to DMSO controls), Data 2.

Where two headings read alike, the source gives them in different places.

T2 sequence (O00311 whole entry): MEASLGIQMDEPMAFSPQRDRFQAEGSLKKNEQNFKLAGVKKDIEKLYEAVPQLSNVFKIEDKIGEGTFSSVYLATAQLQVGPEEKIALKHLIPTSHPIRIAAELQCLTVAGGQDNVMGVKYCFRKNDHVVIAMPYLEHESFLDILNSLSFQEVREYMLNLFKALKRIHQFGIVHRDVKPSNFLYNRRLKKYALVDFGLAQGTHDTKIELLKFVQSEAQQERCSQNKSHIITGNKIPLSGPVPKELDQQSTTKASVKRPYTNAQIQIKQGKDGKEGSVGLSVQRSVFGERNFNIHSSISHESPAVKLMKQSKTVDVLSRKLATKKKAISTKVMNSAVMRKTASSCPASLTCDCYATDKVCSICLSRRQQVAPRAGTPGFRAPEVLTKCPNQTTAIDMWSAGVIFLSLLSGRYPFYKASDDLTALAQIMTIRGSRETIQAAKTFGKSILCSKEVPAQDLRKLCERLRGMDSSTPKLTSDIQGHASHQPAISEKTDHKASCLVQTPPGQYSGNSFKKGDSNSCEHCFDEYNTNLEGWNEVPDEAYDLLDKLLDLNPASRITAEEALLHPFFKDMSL
T2 sequence (Q9UBU7 whole entry partner): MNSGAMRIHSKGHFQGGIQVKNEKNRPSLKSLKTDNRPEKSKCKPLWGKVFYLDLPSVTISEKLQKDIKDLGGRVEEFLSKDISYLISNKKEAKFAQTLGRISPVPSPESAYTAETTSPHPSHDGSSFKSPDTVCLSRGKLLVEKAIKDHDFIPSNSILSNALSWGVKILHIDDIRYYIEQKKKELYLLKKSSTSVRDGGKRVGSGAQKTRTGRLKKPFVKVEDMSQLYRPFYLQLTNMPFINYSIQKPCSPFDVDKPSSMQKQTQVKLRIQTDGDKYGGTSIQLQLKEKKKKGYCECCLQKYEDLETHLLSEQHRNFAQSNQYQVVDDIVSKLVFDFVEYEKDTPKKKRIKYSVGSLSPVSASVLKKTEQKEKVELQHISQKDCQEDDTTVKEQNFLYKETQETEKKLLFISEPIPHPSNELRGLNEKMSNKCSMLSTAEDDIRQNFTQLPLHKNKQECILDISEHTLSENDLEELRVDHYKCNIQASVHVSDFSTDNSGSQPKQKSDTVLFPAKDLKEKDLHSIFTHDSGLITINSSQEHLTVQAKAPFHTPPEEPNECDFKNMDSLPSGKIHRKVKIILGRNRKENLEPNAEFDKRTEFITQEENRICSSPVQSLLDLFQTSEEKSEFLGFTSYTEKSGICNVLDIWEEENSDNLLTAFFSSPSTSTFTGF
T1 sequence (P53355 whole entry): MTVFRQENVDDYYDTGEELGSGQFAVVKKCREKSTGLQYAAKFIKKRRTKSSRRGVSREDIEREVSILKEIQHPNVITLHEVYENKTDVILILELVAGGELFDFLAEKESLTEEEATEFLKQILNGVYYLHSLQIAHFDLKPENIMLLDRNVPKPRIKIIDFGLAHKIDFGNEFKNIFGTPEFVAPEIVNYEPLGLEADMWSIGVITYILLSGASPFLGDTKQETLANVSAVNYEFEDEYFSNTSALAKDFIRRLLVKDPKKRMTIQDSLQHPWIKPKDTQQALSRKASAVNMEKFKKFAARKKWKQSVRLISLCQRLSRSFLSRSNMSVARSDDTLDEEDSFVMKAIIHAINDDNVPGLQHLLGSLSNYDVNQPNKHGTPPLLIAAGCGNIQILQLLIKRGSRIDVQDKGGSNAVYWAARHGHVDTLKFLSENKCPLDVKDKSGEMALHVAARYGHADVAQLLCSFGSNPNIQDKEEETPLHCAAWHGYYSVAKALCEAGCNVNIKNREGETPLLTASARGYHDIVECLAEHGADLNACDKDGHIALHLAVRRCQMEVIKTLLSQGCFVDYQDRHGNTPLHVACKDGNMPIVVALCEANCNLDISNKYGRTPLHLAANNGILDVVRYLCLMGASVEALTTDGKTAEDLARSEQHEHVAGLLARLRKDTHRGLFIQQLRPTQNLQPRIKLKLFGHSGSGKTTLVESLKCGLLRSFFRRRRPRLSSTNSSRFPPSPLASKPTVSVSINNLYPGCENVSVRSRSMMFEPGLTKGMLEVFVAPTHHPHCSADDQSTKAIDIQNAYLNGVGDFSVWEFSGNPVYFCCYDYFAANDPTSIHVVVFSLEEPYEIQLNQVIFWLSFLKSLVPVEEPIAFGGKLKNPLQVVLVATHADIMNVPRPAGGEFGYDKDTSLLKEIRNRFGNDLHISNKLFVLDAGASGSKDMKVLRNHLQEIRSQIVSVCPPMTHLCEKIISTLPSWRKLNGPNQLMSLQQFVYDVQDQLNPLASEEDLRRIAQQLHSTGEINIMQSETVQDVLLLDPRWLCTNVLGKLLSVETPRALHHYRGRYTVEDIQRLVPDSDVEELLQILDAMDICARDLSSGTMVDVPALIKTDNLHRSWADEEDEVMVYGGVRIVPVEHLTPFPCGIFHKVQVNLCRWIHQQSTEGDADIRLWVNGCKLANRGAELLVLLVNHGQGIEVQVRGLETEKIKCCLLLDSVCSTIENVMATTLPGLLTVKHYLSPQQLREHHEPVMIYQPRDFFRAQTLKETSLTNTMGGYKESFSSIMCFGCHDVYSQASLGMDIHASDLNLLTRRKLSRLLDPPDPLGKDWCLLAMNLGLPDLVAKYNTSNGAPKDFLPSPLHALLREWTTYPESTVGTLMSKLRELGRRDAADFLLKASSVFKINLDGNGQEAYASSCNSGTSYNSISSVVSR

For the compound `CC(C)C[C@H](NC(=O)[C@H](Cc1ccccc1)NC(=O)c1cnccn1)B(O)O` [Bortezomib], the “% Enzyme Activity (relative to DMSO controls), Average” value came out at 99.82% at DAPK1 (1 uM), 92.04% on DAPK1 (10 uM), 74.98% on CDC7 (1 uM) and 84.55% on CDC7 (10 uM). Besides, the “% Enzyme Activity (relative to DMSO controls), Data 1” value on DAPK1 (1 uM) was 95.51%; on DAPK1 (10 uM) it was 94.13%; at CDC7 (1 uM), 77.59%; at CDC7 (10 uM), 84.43%. In addition, the “% Enzyme Activity (relative to DMSO controls), Data 2” value on DAPK1 (1 uM) was determined as 104.12%; on DAPK1 (10 uM) it was 89.94%; at CDC7 (1 uM), 72.36%; on CDC7 (10 uM) it was 84.67%.
Take `CN(C)CCCN1c2ccccc2Sc2ccc(Cl)cc21` [Chlorpromazine]: the “% Enzyme Activity (relative to DMSO controls), Average” value on MAP2K2 (1 uM, Average) was 103.60%; at MAP2K2 (10 uM, Average), 101.38%; at VEGFR2 (1 uM, Average) it was 105.46%; at VEGFR2 (10 uM, Average), 105.67%. Also, the “% Enzyme Activity (relative to DMSO controls), Data 1” value was 103.14% at MAP2K2 (1 uM, replicate Data 1); 102.43% at MAP2K2 (10 uM, replicate Data 1); 101.88% at VEGFR2 (1 uM, replicate Data 1); 105.24% on VEGFR2 (10 uM, replicate Data 1). Further, the “% Enzyme Activity (relative to DMSO controls), Data 2” value is on record as 104.05% on MAP2K2 (1 uM, replicate Data 2); 100.33% at MAP2K2 (10 uM, replicate Data 2); 109.04% on VEGFR2 (1 uM, replicate Data 2); 106.1% on VEGFR2 (10 uM, replicate Data 2).
Consider `C[C@H](O)[C@H](O)[C@H]1CNc2nc(N)[nH]c(=O)c2N1` [Sapropterin], for which the “% Enzyme Activity (relative to DMSO controls), Average” value at MST-4 (1 uM) worked out at 87.71%; on MST-4 (10 uM), 87.19%; at VEGFR2 (1 uM, Average), 98.99%; on VEGFR2 (10 uM, Average), 98.14%; on NEK2 (1 uM, Average), 93.31%; on NEK2 (10 uM, Average), 93.52%. The “% Enzyme Activity (relative to DMSO controls), Data 1” value on MST-4 (1 uM) worked out at 88.88%; on MST-4 (10 uM) it was 96.6%; on VEGFR2 (1 uM, replicate Data 1), 101.37%; at VEGFR2 (10 uM, replicate Data 1), 98.48%; on NEK2 (1 uM, replicate Data 1), 92.46%; at NEK2 (10 uM, replicate Data 1), 92.39%. For the same compound, the “% Enzyme Activity (relative to DMSO controls), Data 2” value amounted to 86.54% on MST-4 (1 uM); 77.78% at MST-4 (10 uM); 96.61% on VEGFR2 (1 uM, replicate Data 2); 97.79% at VEGFR2 (10 uM, replicate Data 2); 94.15% at NEK2 (1 uM, replicate Data 2); 94.64% on NEK2 (10 uM, replicate Data 2).
As to `N[C@@H](CC(=O)N1CCn2c(nnc2C(F)(F)F)C1)Cc1cc(F)c(F)cc1F` [Sitagliptin], the remaining activity at 1 µM at MAP2K2 (setting [1]) came to 100%; on MAP2K2 (setting [2]) it was 101%; on MAP2K2 (setting [3]), 99.3%; at VEGFR2 (setting [1]), 97.9%; on VEGFR2 (setting [2]), 100%; on VEGFR2 (setting [3]) it was 95.6%. The remaining activity at 1 µM stood at 92.4% on NEK2 (setting [1]), 89.3% on NEK2 (setting [2]) and 95.5% at NEK2 (setting [3]). Also, the remaining activity at 10 µM on MAP2K2 (setting [4]) was 94.3%; on MAP2K2 (setting [5]), 96.2%; on MAP2K2 (setting [6]), 92.4%; on VEGFR2 (setting [4]) it was 99.7%; at VEGFR2 (setting [5]), 99.4%; on VEGFR2 (setting [6]) it was 100%. The remaining activity at 10 µM at NEK2 (setting [4]) was 86.5%; on NEK2 (setting [5]), 82.7%; at NEK2 (setting [6]) it was 90.3%.
